Data from patent US6777412B2 (priority 1990, dated 2004).
Where two headings read alike, the source gives them in different places. Marks after values point to notes of the source that are not given here.

Tests used:
Format in all cases: in vivo
[1] = tested on: Puccinia recondita; assay: Foliar fungal disease test on plants: Puccinia recondita (Pr)
How it was run: (§1)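 Potted plants treated by foliar spray to maximum retention (100 ppm a.i. unless stated) plus root drench (~40 ppm a.i. in dry soil), with 0.05% Tween 20 on cereals, one or two days before spore-suspension inoculation.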

[2] = tested on: Erysiphe graminis hordei; assay: Foliar fungal disease test on plants: Erysiphe graminis hordei (Egh)
[3] = tested on: Pyricularia oryzae
[4] = tested on: Venturia inaequalis; assay: Foliar fungal disease test on plants: Venturia inaequalis (Vi)
How it was run: as §1

[5] = tested on: Cercospora arachidicola; assay: Foliar fungal disease test on plants: Cercospora arachidicola (Ca)
Method: (§2) The compounds were tested against a variety of foliar fungal diseases of plants. The technique employed was as follows.
(§3) The plants were grown in John Innes Potting Compost (No.1 or 2) in 4 cm diameter minipots. The test compounds were formulated either by bead milling with aqueous Dispersol T or as a solution in acetone or acetone/ethanol which was diluted to the required concentration immediately before use. For the foliage diseases, the formulations (100 ppm active ingredient except where otherwise indicated) were sprayed onto the foliage and applied to the roots of the plants in the soil. The sprays were applied to maximum retention and the root drenches to a final concentration equivalent to approximately 40 ppm a.i. in dry soil. Tween 20, to give a final concentration of 0.05%, was added when the sprays were applied to cereals.
(§4) For most of the tests the compound was applied to the soil (roots) and to the foliage (by spraying) one or two days before the plant was inoculated with the disease. An exception was the test on Erysiphe graminis in which the plants were inoculated 24 hours before treatment. Foliar pathogens were applied by spray as spore suspensions onto the leaves of test plants. After inoculation, the plants were put into an appropriate environment to allow infection to proceed and then incubated until the disease was ready for assessment. The period between inoculation and assessment varied from four to fourteen days according to the disease and environment.
(§5) The disease control vas recorded by the following grading:
(§6) 3=trace-5% of disease on untreated plants
(§7) 2=6-25% of disease on untreated plants
(§8) 1=26-59% of disease on untreated plants
(§9) 0=60-100% of disease on untreated plants
Ca Cercospora arachidicola

[6] = tested on: Plasmopara viticola; assay: Foliar fungal disease test on plants: Plasmopara viticola (Pv)
How it was run: as §1

[7] = tested on: Phytophthora infestans lycopersici
[8] = tested on: Erysiphe graminis tritici; assay: Foliar fungal disease test on plants: Erysiphe graminis tritici (Egt)
Method: as §2, §3, §4, §5, §6, §7, §8, §9
Egt Erysiphe graminis tritici

[9] = tested on: Septoria nodorum; assay: Foliar fungal disease test on plants: Septoria nodorum (Sn)
How it was run: as §1

[10] = tested on: Thanatephorus cucumeris; assay: Foliar fungal disease test on plants: Thanatephorus cucumeris (Tc)
Method: as §2, §3, §4, §5, §6, §7, §8, §9
Tc Thanatephorus cucumeris

[11] = 100 ppm active ingredient foliar spray plus root drench (approx. 40 ppm a.i. in dry soil), one or two days before inoculation
[12] = 100 ppm active ingredient foliar spray plus root drench (approx. 40 ppm a.i. in dry soil), plants inoculated 24 hours before treatment

| SMILES | disease control grading, Pr (Puccinia recondita) [1, 11] | disease control grading, Egh (Erysiphe graminis hordei) [2, 12] | disease control grading, Po (Pyricularia oryzae) [3, 11] | disease control grading, Vi (Venturia inaegualis) [4, 11] | disease control grading, Ca (Cercospora arachidicola) [5, 11] | disease control grading, Pv (Plasmopara viticola) [6, 11] | disease control grading, Pil (Phytophthora infestans lycopersici) [7, 11] | further results |
| --- | --- | --- | --- | --- | --- | --- | --- | --- |
| CO/C=C(/C(=O)OC)c1ccccc1Oc1cc(Nc2ccccc2)ncn1 [4 of Table I] | 4 (4=no disease) | 4 (4=no disease) | 3 (3=trace-5% of disease on untreated plants) | 4 (4=no disease) | 4 (4=no disease) | 4 (4=no disease) | 3 (3=trace-5% of disease on untreated plants) | – |
| CO/C=C(/C(=O)OC)c1ccccc1Oc1cc(OCc2ccccc2)ncn1 [23 of Table I] | 4 (4=no disease) | 4 (4=no disease) | 4 (4=no disease) | 4 (4=no disease) | 4 (4=no disease) | 4 (4=no disease) | – | – |
| COC=C(C(=O)OC)c1ccccc1Oc1nccc(-c2ccccc2)n1 [180 of Table III] | – | – | – | – | – | – | – | disease control grading, Pr (Puccinia recondita) ([1]; 10 ppm foliar application only): 4^a (4=no disease); disease control grading, Egh (Erysiphe graminis hordei) ([2]; 10 ppm foliar application only): 4^a (4=no disease); disease control grading, Po (Pyricularia oryzae) ([3]; 10 ppm foliar application only): 3^a (3=trace-5% of disease on untreated plants); disease control grading, Vi (Venturia inaegualis) ([4]; 10 ppm foliar application only): 4^a (4=no disease); disease control grading, Ca (Cercospora arachidicola) ([5]; 10 ppm foliar application only): 3^a (3=trace-5% of disease on untreated plants); disease control grading, Pv (Plasmopara viticola) ([6]; 10 ppm foliar application only): 4^a (4=no disease); disease control grading, Pil (Phytophthora infestans lycopersici) ([7]; 10 ppm foliar application only): 4^a (4=no disease) |
| CO/C=C(/C(=O)OC)c1ccccc1Oc1cc(-c2ccccc2)ncn1 [180 of Table I] | 4 (4=no disease) | 4 (4=no disease) | – | 4 (4=no disease) | 4 (4=no disease) | 4 (4=no disease) | – | – |
| CO/C=C(/C(=O)OC)c1ccccc1Oc1cc(Sc2ccccn2)ncn1 [218 of Table I] | 4 (4=no disease) | 4 (4=no disease) | 3 (3=trace-5% of disease on untreated plants) | 4 (4=no disease) | 4 (4=no disease) | 4 (4=no disease) | 3 (3=trace-5% of disease on untreated plants) | – |
| CO/C=C(/C(=O)OC)c1ccccc1Oc1cc(Nc2ccccn2)ncn1 [220 of Table I] | 4 (4=no disease) | 4 (4=no disease) | 4 (4=no disease) | 4 (4=no disease) | 4 (4=no disease) | 4 (4=no disease) | 0 (0=60-100% of disease on untreated plants) | – |
| CO/C=C(/C(=O)OC)c1ccccc1Oc1cc(Sc2ncccn2)ncn1 [239 of Table I] | 4 (4=no disease) | 4 (4=no disease) | 3 (3=trace-5% of disease on untreated plants) | 4 (4=no disease) | 4 (4=no disease) | 4 (4=no disease) | 4 (4=no disease) | – |
| CO/C=C(/C(=O)OC)c1ccccc1Oc1cc(OCc2ccco2)ncn1 [320 of Table I] | 4 (4=no disease) | – | 3 (3=trace-5% of disease on untreated plants) | 4 (4=no disease) | – | 4 (4=no disease) | 4 (4=no disease) | disease control grading, Egt (Erysiphe graminis tritici) [8, 12]: 4 (4=no disease); disease control grading, Sn (Septoria nodorum) [9, 11]: 4 (4=no disease); disease control grading, Tc (Thanatephorus cucumeris) [10, 11]: 4 (4=no disease) |
| CO/C=C(/C(=O)OC)c1ccccc1Oc1cc(N(C)c2ccccc2C#N)ncn1 [354 of Table I] | 4 (4=no disease) | 4 (4=no disease) | 3 (3=trace-5% of disease on untreated plants) | 4 (4=no disease) | 4 (4=no disease) | 4 (4=no disease) | 0 (0=60-100% of disease on untreated plants) | – |
| CO/C=C(/C(=O)OC)c1ccccc1Oc1cc(S(=O)(=O)c2ccccn2)ncn1 [356 of Table I] | 1 (1=26-59% of disease on untreated plants) | 0 (0=60-100% of disease on untreated plants) | – | 4 (4=no disease) | 3 (3=trace-5% of disease on untreated plants) | 4 (4=no disease) | 0 (0=60-100% of disease on untreated plants) | – |
| CO/C=C(/C(=O)OC)c1ccccc1Oc1cc(OCCc2ccc(C#N)cc2)ncn1 [359 of Table I] | 4 (4=no disease) | 4 (4=no disease) | – | – | 4 (4=no disease) | 4 (4=no disease) | 4 (4=no disease) | – |
| CO/C=C(/C(=O)OC)c1ccccc1Oc1cc(Nc2ccccc2C#N)ncn1 [377 of Table I] | 4 (4=no disease) | 4 (4=no disease) | 0 (0=60-100% of disease on untreated plants) | 4 (4=no disease) | 4 (4=no disease) | 4 (4=no disease) | 4 (4=no disease) | – |
| CO/C=C(/C(=O)OC)c1ccccc1Oc1cc(OCc2cccs2)ncn1 [394 of Table I] | 4 (4=no disease) | – | 3 (3=trace-5% of disease on untreated plants) | 4 (4=no disease) | – | 4 (4=no disease) | 4 (4=no disease) | disease control grading, Egt (Erysiphe graminis tritici) [8, 12]: 4 (4=no disease); disease control grading, Sn (Septoria nodorum) [9, 11]: 4 (4=no disease); disease control grading, Tc (Thanatephorus cucumeris) [10, 11]: 4 (4=no disease) |
| CO/C=C(/C(=O)OC)c1ccccc1Oc1cc(O/N=C(/N)c2cccc(C(F)(F)F)c2)ncn1 [406 of Table I] | 0 (0=60-100% of disease on untreated plants) | – | 0 (0=60-100% of disease on untreated plants) | 1 (1=26-59% of disease on untreated plants) | – | 4 (4=no disease) | 0 (0=60-100% of disease on untreated plants) | disease control grading, Egt (Erysiphe graminis tritici) [8, 12]: 1 (1=26-59% of disease on untreated plants); disease control grading, Sn (Septoria nodorum) [9, 11]: 0 (0=60-100% of disease on untreated plants); disease control grading, Tc (Thanatephorus cucumeris) [10, 11]: 0 (0=60-100% of disease on untreated plants) |
| CO/C=C(/C(=O)OC)c1ccccc1Oc1cc(O/N=C(\C)c2ccc[nH]2)ncn1 [407 of Table I] | – | – | – | – | – | – | – | disease control grading, Pr (Puccinia recondita) ([1]; 10 ppm foliar application only): 0^a (0=60-100% of disease on untreated plants); disease control grading, Egt (Erysiphe graminis tritici) ([8]; 10 ppm foliar application only): 1^a (1=26-59% of disease on untreated plants); disease control grading, Sn (Septoria nodorum) ([9]; 10 ppm foliar application only): 0^a (0=60-100% of disease on untreated plants); disease control grading, Po (Pyricularia oryzae) ([3]; 10 ppm foliar application only): 1^a (1=26-59% of disease on untreated plants); disease control grading, Tc (Thanatephorus cucumeris) ([10]; 10 ppm foliar application only): 0^a (0=60-100% of disease on untreated plants); disease control grading, Vi (Venturia inaegualis) ([4]; 10 ppm foliar application only): 3^a (3=trace-5% of disease on untreated plants); disease control grading, Pv (Plasmopara viticola) ([6]; 10 ppm foliar application only): 4^a (4=no disease); disease control grading, Pil (Phytophthora infestans lycopersici) ([7]; 10 ppm foliar application only): 0^a (0=60-100% of disease on untreated plants) |
